The values below come from publication PMC10518257 (Nature Cancer, 2023).

Structures are written as SMILES. Values joined by “and” are separate entries in the source; they are usually repeats but may differ in a detail not shown here. Equal entries are not always repeated.

Assay [1] deals with T1, panel of 255 (vepafestinib) or 256 (all other inhibitors) recombinant kinases (Homo sapiens, UniProt O60674).
T1 construct: purchased Carna Biosciences
The assay can be described thus: Kinase selectivity profiling at a single concentration (Carna Biosciences). Format: biochemical. The note with it: 17 nM.

The target in assay [2] is T2, panel of 255 (vepafestinib) or 256 (all other inhibitors) recombinant kinases (Homo sapiens, UniProt P04629).
T2 construct: purchased Carna Biosciences
The description is as above. The note with it: 17 nM. In kind it is biochemical.

Assay [3] concerns the target T3, panel of 255 (vepafestinib) or 256 (all other inhibitors) recombinant kinases (Homo sapiens, UniProt P07333).
T3 construct: purchased Carna Biosciences
The assay is described as above. Format: biochemical. The settings on record: 17 nM.

The target of assay [4] is T4, panel of 255 (vepafestinib) or 256 (all other inhibitors) recombinant kinases (Homo sapiens, UniProt P07947).
T4 construct: purchased Carna Biosciences
The description is as above. In kind it is biochemical. The settings on record: 17 nM.

The target in assay [5] is T5, panel of 255 (vepafestinib) or 256 (all other inhibitors) recombinant kinases (Homo sapiens, UniProt P08922).
T5 construct: purchased Carna Biosciences
Described as above. Format: biochemical. The note with it: 17 nM.

In assay [6] the target is T6, panel of 255 (vepafestinib) or 256 (all other inhibitors) recombinant kinases (Homo sapiens, UniProt P12931).
T6 construct: purchased Carna Biosciences
The assay is described as above. In kind it is biochemical. The note with it: 17 nM.

The target in assay [7] is T7, panel of 255 (vepafestinib) or 256 (all other inhibitors) recombinant kinases (Homo sapiens, UniProt P23458).
T7 construct: purchased Carna Biosciences
The description is as above. In kind it is biochemical. The note with it: 17 nM.

In assay [8] the target is T8, panel of 255 (vepafestinib) or 256 (all other inhibitors) recombinant kinases (Homo sapiens, UniProt P52333).
T8 construct: purchased Carna Biosciences
The assay is described as above. In kind it is biochemical. The settings on record: 17 nM.

The target of assay [9] is T9, panel of 255 (vepafestinib) or 256 (all other inhibitors) recombinant kinases (Homo sapiens, UniProt Q16288).
T9 construct: purchased Carna Biosciences
Described as above. In kind it is biochemical. The settings on record: 17 nM.

The target of assay [10] is T10, panel of 255 (vepafestinib) or 256 (all other inhibitors) recombinant kinases (Homo sapiens, UniProt Q16832).
T10 construct: purchased Carna Biosciences
The assay is described as above. Format: biochemical. The note with it: 17 nM.

The target of assay [11] is T11, panel of 255 (vepafestinib) or 256 (all other inhibitors) recombinant kinases (Homo sapiens, UniProt P17948).
T11 construct: purchased Carna Biosciences
The description is as above. In kind it is biochemical. The note with it: 22 nM.

Assay [12] addresses T12, panel of 255 (vepafestinib) or 256 (all other inhibitors) recombinant kinases (Homo sapiens, UniProt P24941).
T12 construct: purchased Carna Biosciences
The description is as above. In kind it is biochemical. The settings on record: 22 nM.

For assay [13], the target named is T13, panel of 255 (vepafestinib) or 256 (all other inhibitors) recombinant kinases (Homo sapiens, UniProt P30530).
T13 construct: purchased Carna Biosciences
Described as above. Format: biochemical. The note with it: 22 nM.

Assay [14] concerns the target T14, panel of 255 (vepafestinib) or 256 (all other inhibitors) recombinant kinases (Homo sapiens, UniProt P54762).
T14 construct: purchased Carna Biosciences
The description is as above. The note with it: 22 nM. In kind it is biochemical.

The target in assay [15] is T15, panel of 255 (vepafestinib) or 256 (all other inhibitors) recombinant kinases (Homo sapiens, UniProt Q92630).
T15 construct: purchased Carna Biosciences
The description is as above. In kind it is biochemical. The settings on record: 22 nM.

For assay [16], the target named is T16, panel of 255 (vepafestinib) or 256 (all other inhibitors) recombinant kinases (Homo sapiens, UniProt Q9UF33).
T16 construct: purchased Carna Biosciences
The description is as above. Format: biochemical. The note with it: 22 nM.

The target of assay [17] is T17, panel of 255 (vepafestinib) or 256 (all other inhibitors) recombinant kinases (Homo sapiens, UniProt P07948).
T17 construct: purchased Carna Biosciences
Described as above. Format: biochemical. The settings on record: 23 nM.

Assay [18] addresses T18, panel of 255 (vepafestinib) or 256 (all other inhibitors) recombinant kinases (Homo sapiens, UniProt P17252).
T18 construct: purchased Carna Biosciences
Described as above. In kind it is biochemical. The settings on record: 23 nM.

Assay [19] has as its target T19, panel of 255 (vepafestinib) or 256 (all other inhibitors) recombinant kinases (Homo sapiens, UniProt P29376).
T19 construct: purchased Carna Biosciences
The description is as above. In kind it is biochemical. The note with it: 23 nM.

Assay [20] deals with T20, panel of 255 (vepafestinib) or 256 (all other inhibitors) recombinant kinases (Homo sapiens, UniProt P31749).
T20 construct: purchased Carna Biosciences
The description is as above. Format: biochemical. The settings on record: 23 nM.

In assay [21] the target is T21, panel of 255 (vepafestinib) or 256 (all other inhibitors) recombinant kinases (Homo sapiens, UniProt P42684).
T21 construct: purchased Carna Biosciences
The description is as above. Format: biochemical. The note with it: 23 nM.

Assay [22] deals with T22, panel of 255 (vepafestinib) or 256 (all other inhibitors) recombinant kinases (Homo sapiens, UniProt Q13177).
T22 construct: purchased Carna Biosciences
Described as above. The settings on record: 23 nM. In kind it is biochemical.

The target in assay [23] is T23, panel of 255 (vepafestinib) or 256 (all other inhibitors) recombinant kinases (Homo sapiens, UniProt Q15303).
T23 construct: purchased Carna Biosciences
The assay is described as above. In kind it is biochemical. The settings on record: 23 nM.

Assay [24] has as its target T24, panel of 255 (vepafestinib) or 256 (all other inhibitors) recombinant kinases (Homo sapiens, UniProt Q15759).
T24 construct: purchased Carna Biosciences
Described as above. Format: biochemical. The note with it: 23 nM.

For assay [25], the target named is T25, panel of 255 (vepafestinib) or 256 (all other inhibitors) recombinant kinases (Homo sapiens, UniProt Q7KZI7).
T25 construct: purchased Carna Biosciences
The description is as above. In kind it is biochemical. The settings on record: 23 nM.

The target in assay [26] is T26, panel of 255 (vepafestinib) or 256 (all other inhibitors) recombinant kinases (Homo sapiens, UniProt Q9NQU5).
T26 construct: purchased Carna Biosciences
The assay is described as above. Format: biochemical. The settings on record: 23 nM.

Assay [27] concerns the target T27, panel of 255 (vepafestinib) or 256 (all other inhibitors) recombinant kinases (Homo sapiens, UniProt Q9P0L2).
T27 construct: purchased Carna Biosciences
The assay is described as above. Format: biochemical. The note with it: 23 nM.

For assay [28], the target named is T28, panel of 255 (vepafestinib) or 256 (all other inhibitors) recombinant kinases (Homo sapiens, UniProt Q9Y6E0).
T28 construct: purchased Carna Biosciences
The description is as above. The note with it: 23 nM. Format: biochemical.

Assay [29] has as its system NIH-3T3-CCDC6::RET xenografts. The assay is described as follows: Subcutaneous xenograft efficacy study.

T14 sequence (P54762 18-984): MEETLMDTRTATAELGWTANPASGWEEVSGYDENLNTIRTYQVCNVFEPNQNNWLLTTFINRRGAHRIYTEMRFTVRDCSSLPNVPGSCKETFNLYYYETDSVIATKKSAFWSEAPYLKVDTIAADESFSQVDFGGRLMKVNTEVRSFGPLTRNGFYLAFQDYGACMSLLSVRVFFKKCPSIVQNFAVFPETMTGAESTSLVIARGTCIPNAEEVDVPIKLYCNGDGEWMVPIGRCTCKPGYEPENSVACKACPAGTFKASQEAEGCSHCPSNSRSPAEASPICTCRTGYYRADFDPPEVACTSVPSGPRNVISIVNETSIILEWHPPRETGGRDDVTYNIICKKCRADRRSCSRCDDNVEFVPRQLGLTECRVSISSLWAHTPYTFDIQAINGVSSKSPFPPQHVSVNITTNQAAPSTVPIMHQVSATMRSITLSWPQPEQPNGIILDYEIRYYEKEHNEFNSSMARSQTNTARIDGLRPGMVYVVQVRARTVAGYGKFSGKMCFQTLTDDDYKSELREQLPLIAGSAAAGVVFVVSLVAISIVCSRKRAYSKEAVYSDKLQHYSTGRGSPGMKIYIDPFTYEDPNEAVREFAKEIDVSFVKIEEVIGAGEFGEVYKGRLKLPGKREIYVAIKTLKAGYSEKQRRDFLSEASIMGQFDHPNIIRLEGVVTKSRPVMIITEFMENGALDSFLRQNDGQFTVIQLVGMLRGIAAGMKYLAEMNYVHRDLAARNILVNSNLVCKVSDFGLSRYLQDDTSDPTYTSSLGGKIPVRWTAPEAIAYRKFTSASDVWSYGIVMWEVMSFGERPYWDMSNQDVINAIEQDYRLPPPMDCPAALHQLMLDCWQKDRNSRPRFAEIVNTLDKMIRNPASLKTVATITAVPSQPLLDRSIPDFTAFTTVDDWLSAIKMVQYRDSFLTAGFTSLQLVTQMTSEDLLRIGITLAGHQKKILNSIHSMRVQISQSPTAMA
T3 sequence (P07333 20-972): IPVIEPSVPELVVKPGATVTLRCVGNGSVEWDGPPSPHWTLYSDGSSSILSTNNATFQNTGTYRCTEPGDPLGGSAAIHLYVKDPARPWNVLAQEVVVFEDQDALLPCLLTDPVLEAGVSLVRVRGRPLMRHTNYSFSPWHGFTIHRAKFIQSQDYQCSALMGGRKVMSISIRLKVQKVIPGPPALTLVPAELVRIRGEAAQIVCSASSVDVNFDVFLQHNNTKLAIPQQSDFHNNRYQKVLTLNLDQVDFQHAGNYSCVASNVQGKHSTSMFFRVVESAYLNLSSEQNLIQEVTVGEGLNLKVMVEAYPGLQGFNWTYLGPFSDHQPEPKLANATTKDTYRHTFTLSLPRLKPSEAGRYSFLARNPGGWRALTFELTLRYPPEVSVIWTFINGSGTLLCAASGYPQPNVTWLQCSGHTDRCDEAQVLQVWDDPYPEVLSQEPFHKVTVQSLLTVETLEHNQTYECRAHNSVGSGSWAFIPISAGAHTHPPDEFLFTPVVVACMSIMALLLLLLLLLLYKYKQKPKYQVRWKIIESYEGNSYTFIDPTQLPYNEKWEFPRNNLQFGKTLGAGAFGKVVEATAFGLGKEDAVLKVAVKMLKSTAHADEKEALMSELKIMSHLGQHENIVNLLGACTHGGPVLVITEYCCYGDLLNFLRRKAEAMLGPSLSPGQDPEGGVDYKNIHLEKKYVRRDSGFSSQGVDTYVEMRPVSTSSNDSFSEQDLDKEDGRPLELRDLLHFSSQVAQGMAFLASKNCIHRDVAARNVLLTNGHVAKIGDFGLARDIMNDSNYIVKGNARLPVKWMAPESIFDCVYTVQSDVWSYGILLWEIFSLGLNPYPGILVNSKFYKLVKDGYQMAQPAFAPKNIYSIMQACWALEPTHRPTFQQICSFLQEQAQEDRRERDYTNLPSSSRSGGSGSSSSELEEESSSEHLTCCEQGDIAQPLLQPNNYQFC
T4 sequence (P07947 whole entry): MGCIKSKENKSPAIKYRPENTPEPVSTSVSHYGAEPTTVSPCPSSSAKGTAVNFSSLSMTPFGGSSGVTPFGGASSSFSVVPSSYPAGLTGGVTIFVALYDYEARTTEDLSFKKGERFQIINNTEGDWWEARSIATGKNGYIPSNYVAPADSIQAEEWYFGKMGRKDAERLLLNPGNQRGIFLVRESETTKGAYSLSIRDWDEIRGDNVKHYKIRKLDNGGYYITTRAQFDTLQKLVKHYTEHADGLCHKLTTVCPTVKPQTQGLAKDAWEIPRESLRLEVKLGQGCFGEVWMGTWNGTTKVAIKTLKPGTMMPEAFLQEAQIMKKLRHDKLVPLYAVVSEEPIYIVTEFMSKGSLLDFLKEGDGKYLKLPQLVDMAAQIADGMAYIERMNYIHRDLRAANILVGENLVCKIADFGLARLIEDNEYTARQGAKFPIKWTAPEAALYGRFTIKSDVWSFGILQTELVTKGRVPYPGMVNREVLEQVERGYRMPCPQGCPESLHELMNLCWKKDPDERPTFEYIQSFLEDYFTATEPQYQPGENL
T7 sequence (P23458 whole entry): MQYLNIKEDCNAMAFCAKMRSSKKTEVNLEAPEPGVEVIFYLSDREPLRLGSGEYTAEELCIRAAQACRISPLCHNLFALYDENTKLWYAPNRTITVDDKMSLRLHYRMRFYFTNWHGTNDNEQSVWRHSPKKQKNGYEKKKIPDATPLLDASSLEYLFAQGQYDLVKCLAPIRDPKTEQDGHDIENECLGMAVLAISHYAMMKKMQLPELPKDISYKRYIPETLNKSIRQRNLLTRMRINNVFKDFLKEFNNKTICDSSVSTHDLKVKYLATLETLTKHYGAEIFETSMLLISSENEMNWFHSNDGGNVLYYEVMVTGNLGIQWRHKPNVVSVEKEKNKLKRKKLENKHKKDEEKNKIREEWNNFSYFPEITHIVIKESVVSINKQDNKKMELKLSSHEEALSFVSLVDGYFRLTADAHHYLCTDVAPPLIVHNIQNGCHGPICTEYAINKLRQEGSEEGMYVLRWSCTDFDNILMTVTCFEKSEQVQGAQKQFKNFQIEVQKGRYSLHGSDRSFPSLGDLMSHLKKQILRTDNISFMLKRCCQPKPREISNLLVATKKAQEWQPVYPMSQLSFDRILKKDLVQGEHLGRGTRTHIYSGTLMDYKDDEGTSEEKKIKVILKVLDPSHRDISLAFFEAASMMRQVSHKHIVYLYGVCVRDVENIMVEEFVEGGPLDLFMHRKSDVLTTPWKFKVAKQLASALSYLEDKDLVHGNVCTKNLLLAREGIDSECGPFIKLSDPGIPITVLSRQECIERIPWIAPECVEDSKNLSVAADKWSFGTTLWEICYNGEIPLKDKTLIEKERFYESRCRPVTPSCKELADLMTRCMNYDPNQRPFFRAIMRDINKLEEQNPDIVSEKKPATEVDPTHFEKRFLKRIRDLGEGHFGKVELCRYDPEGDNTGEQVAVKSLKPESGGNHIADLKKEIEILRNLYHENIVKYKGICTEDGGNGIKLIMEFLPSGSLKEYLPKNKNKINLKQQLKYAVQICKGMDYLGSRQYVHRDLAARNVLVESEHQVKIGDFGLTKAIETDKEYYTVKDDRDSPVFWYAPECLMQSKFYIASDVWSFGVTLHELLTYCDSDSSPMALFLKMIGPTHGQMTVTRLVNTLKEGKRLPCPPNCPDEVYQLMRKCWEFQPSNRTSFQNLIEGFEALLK
T26 sequence (Q9NQU5 whole entry): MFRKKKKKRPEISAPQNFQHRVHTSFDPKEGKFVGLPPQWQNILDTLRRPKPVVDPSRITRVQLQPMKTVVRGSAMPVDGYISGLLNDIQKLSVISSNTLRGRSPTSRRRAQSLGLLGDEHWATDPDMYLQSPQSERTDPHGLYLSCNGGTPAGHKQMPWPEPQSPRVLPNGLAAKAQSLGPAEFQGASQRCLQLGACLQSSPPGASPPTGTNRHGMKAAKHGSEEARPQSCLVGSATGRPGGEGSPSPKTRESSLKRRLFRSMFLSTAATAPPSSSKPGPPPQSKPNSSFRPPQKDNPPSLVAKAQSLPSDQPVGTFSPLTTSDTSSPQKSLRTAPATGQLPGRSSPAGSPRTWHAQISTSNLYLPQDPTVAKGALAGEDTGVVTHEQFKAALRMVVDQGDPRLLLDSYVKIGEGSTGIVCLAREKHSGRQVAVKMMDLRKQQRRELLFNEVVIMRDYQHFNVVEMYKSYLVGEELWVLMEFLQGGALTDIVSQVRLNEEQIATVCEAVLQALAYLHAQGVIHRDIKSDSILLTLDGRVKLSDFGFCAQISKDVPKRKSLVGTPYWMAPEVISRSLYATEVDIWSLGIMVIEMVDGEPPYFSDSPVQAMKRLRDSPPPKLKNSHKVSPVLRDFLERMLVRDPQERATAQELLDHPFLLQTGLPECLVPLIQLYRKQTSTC

For the compound `CO[C@]1(C(=O)N[C@@H](C)c2ccc(-n3cc(F)cn3)nc2)CC[C@H](c2nc(C)cc(Nc3cc(C)[nH]n3)n2)CC1` [Pralsetinib], the “% Inhibiton JAK2” value in [1] was 101.5%. Also, the “% Inhibiton TRKA” value in assay [2] is 40.8%. Further, the “% Inhibiton FMS” value in assay [3] worked out at 25.5%. For the same compound, in assay [4], the “% Inhibiton YES” value was 37.6%. Besides, in assay [5], the “% Inhibiton ROS” value is reported as 40%. Also, the “% Inhibiton SRC” value in assay [6] is 34.5%. Besides, the “% Inhibiton JAK1” value in assay [7] worked out at 89.1%. In addition, the “% Inhibiton JAK3” value in assay [8] came out at 72.3%. In addition, the “% Inhibiton TRKC” value in assay [9] came to 57.7%. The “% Inhibiton DDR2” value in assay [10] came out at 72.5%.

Take `COc1ccc(CN2C3CC2CN(c2ccc(-c4cc(OCC(C)(C)O)cn5ncc(C#N)c45)cn2)C3)cn1` [Selpercatinib]: the “% Inhibiton FLT1” value in [11] stood at 45.4%. Moreover, the “% Inhibiton CDK2/CycA2” value in assay [12] was 17.9%. Besides, the “% Inhibiton AXL” value in [13] is given as 18.1%. In addition, in assay [14], the “% Inhibiton EPHB1” value amounted to 36.2%. Also, the “% Inhibiton DYRK2” value in [15] is listed as 17.3%. For the same compound, in assay [16], the “% Inhibiton EPHA6” value amounted to 17.3%.

For `COCc1ccc(NC(=O)c2c(C#CCN3CCOCC3)n(C3(C)CC3)c3ncnc(N)c23)cc1` [Vepafestinib, 4-amino-N-[4-(methoxymethyl)phenyl]-7-(1-methylcyclopropyl)-6-[3-(morpholin-4-yl)prop-1-yn-1-yl]-7H-pyrrolo[2,3-d]pyrimidine-5-carboxamide], in assay [17], the “% Inhibiton LYNa” value worked out at 6.7%. Further, the “% Inhibiton PKCα” value in [18] turned out to be 9.1%. The “% Inhibiton LTK” value in assay [19] was 11.3%. The “% Inhibiton AKT1” value in assay [20] was found to be 7.9%. Besides, in assay [21], the “% Inhibiton ARG” value turned out to be 7.3%. In addition, the “% Inhibiton PAK2” value in assay [22] is 19%. The “% Inhibiton HER4” value in assay [23] is 9.5%. Also, the “% Inhibiton p38β” value in assay [24] amounted to 7%. For the same compound, the “% Inhibiton MARK2” value in [25] is given as 14.1%. Moreover, the “% Inhibiton PAK6” value in assay [26] is recorded as 7.4%. For the same compound, in assay [27], the “% Inhibiton MARK1” value came out at 6.5%. In addition, the “% Inhibiton MST3” value in assay [28] is recorded as 13.4%. Also, the “Area Under Curve of tumor growth, Mean” value in [29] (25 mg/kg BID) came to 1601; in [29] (50 mg/kg BID), 678.7; in assay [29] (100 mg/kg QD) it was 371. The “Tumor volume” value was 93.59 mm3 (2×) and 90.28 mm3 (3×) in assay [29] (25 mg/kg BID, day 0, individual animals); 193.69 mm3 and 110.58 mm3 and 112.28 mm3 and 116.25 mm3 (2×) in assay [29] (25 mg/kg BID, day 2, individual animals); 537.65 mm3 and 353.84 mm3 and 294.89 mm3 and 435.05 mm3 and 334.49 mm3 in assay [29] (25 mg/kg BID, day 5, individual animals); 612.84 mm3 and 590.68 mm3 and 301.59 mm3 and 585.96 mm3 and 389.56 mm3 in assay [29] (25 mg/kg BID, day 8, individual animals); 85.5 mm3 (2×) and 93.59 mm3 and 90.28 mm3 (2×) in assay [29] (25 mg/kg QD, day 0, individual animals); 285.69 mm3 and 281.26 mm3 and 438.74 mm3 and 367.92 mm3 and 382.08 mm3 in assay [29] (25 mg/kg QD, day 5, individual animals). Further, the “Tumor volume” value in assay [29] (25 mg/kg QD, day 8, individual animals) is 705.04 mm3 and 750.45 mm3 and 1169.92 mm3 and 945.8 mm3 and 1108.35 mm3; in assay [29] (50 mg/kg BID, day 0, individual animals), 90.28 mm3; in assay [29] (50 mg/kg BID, day 5, individual animals), 225.29 mm3 and 277.15 mm3 and 217.15 mm3 and 205.88 mm3 and 223.64 mm3; in assay [29] (50 mg/kg BID, day 8, individual animals) it was 231.59 mm3 and 332.9 mm3 and 291.54 mm3 and 235.62 mm3 (2×); in assay [29] (50 mg/kg QD, day 0, individual animals) it was 93.59 mm3 and 83.97 mm3 (2×) and 85.5 mm3 and 90.28 mm3; in [29] (50 mg/kg QD, day 5, individual animals), 270.08 mm3 and 180.15 mm3 and 189.86 mm3 and 245.54 mm3 and 226.78 mm3. The “Tumor volume” value was 466.45 mm3 and 389.65 mm3 and 491.45 mm3 and 378.3 mm3 and 446.6 mm3 in assay [29] (50 mg/kg QD, day 8, individual animals); 83.97 mm3 (4×) and 85.5 mm3 in [29] (100 mg/kg QD, day 0, individual animals); 153.78 mm3 and 149.63 mm3 and 176.28 mm3 and 145.47 mm3 and 154.42 mm3 in assay [29] (100 mg/kg QD, day 5, individual animals); 153.78 mm3 and 197.55 mm3 and 200.12 mm3 (2×) and 192.42 mm3 in [29] (100 mg/kg QD, day 8, individual animals).
